# Laboratory results taken from US12097174B2, “Methods and agents that enhance myogenic progenitor cell engraftment” (President and Fellows of Harvard College, priority 2018, dated 2024).
# “Also recorded” adds a separate entry of the source.
# Experiments:
# ZeMPCs [1] = experiment: ZeMPC competitive transplantation assay; assay type: in vivo; settings: co-injected into prkdc-mutant zebrafish, imaged at 7 dpt
# Description: FIGS. 20A-20B show ZeMPC competitive transplantation assays results. (FIG. 20A) Experimental design of ZeMPC competitive transplantation assays using different combinations of chemical-treated or DMSO-treated ZeMPCs marked by mCherry or GFP. ZeMPCs were co-injected from mylz2-GFP and mylz2-mCherry donors into 4- to 8-months-old prkdc-mutant recipient zebrafish and imaged at 7 dpt to assess the engraftment of mylz2-mCherry (pre-transplantation treatment with DMSO) and mylz2-GFP (pre-transplantation treatment with DMSO, LPA or NFA) cells. (FIG. 20B) Engraftment efficiency of equal numbers of DMSO-treated mCherry cells vs. DMSO-treated GFP cells (left), DMSO-treated mCherry cells vs. LPA-treated GFP cells (middle) and DMSO-treated mCherry cells vs. NFA-treated GFP cells (right).
# Lipids are frequently found to enhance cell migration and homeostasis in blood and muscle tissue (Cencetti et al., 2014; Lahvic et al., 2018; Li et al., 2015; Oh et al., 2016), and so it was elected to screen mainly bioactive lipids in efforts to identify compounds that enhance ZeMPCs engraftment efficiency in vivo. Myogenic progenitor cells were treated for 4 hours with one of the 188 unique lipid compounds contained in the ICCB Known Bioactives Library. […] Engraftment efficiency was measured by imaging casper recipients at 7 dpt (FIG. 18A). […]
# muscle progenitor cells = experiment: Measurement of Ca2+ transients in fura-2 AM-loaded muscle progenitor cells; assay type: cell-based
# Description: Measurement of Ca2+ transients was performed in fura-2 AM-loaded cells.
# Thus, it is possible that the enhanced engraftment capacity of muscle progenitor cells exposed to these compounds involves a common Ca^2+-dependent signaling events (FIG. 9).
# [2] = system: sapje-like (sap^c/100) fish; experiment: Swimming performance of sapje-like fish before and after transplantation of treated ZeMPCs; assay type: in vivo, zebrafish; settings: cells treated before transplant; tested 7 days after transplant, flow about 5.5 L/min
# Description: Finally, to assess the functionality of myogenic precursors exposed to NFA and/or LPA prior to muscle engraftment, the swimming performance of sapje-like fish was evaluated before and after transplantation. […] Recipient sapje-like fish were irradiated and injected with healthy ZeMPCs, exposed prior to transplant to NFA, LPA or vehicle alone, on both flanks at 3 dorsal points on each side-in the tail, beneath the dorsal fin, and in the trunk-with 25 cells per injection. Immediately prior to transplant, and again 7 days after transplant, muscle function was tested in a modified Blazka-type swim chamber, in which a flow rate of approximately 5.5 L/min was introduced to test swimming performance (FIG. 16A). […] Because only the treated cells were transplanted, after removal of the compounds, it was concluded from these studies that the swimming performance of these transplanted sapje-like fish was improved as a result of better engraftment by NFA-treated or LPA-treated ZeMPCs. Juvenile zebrafish from a sapje-like transgenic line were fin-clipped and genotyped to identify heterozygotes. A flow-through modified Blazka-type swim chamber was creating using a horizontal acrylic tank with dimensions of 350 mm 1×47 mm w×90 mm d. […] The raw digital file was then analyzed for movement within the swim area. The distance from the flow source was quantified using MATLAB (MathWorks).
# ZeMPCs [3] = experiment: Calcium imaging in Fura-2, AM treated ZeMPCs (single-cell imaging); assay type: cell-based, zebrafish; settings: 10 μM NFA, 5 μM LPA, 10 μM ionomycin; 10-20 seconds after loading
# Description: Fura-2, AM treated ZeMPCs were exposed to 10 μM NFA, 5 μM LPA, 10 μM lonomycin (as a positive control) and DMSO (as vehicle control) to visualize their effect on intracellular calcium ion concentration using single-cell imaging. […] Scale bar 50 μm.
# The ZeMPCs and C2C12 cells were incubated with Fura-2, AM (Thermo Fisher Sci F1225), a cell permeant fluorescent calcium ion indicator, for 45 minutes at 28.5° C. and 37° C., respectively, followed by imaging with Celldiscoverer7 Microscope (Zeiss). 20 seconds after imaging initiation the treatment was added to the cells and continued for a total of 2-3 minutes.
# mouse satellite cells = experiment: Calcium imaging in Fluo-4 AM-loaded mouse satellite cells (AUC of signal intensity); assay type: cell-based; settings: 1-5 μM of LPA, 2.5-10 μM of NFA; 1,500 cells/well
# Description: First, to establish optimal conditions, cells were sorted by FACS into 384 well plates at 10,000, 5,000, 1,500, or 500 cells per well, with 8 replicates for each cell density. […] Cells were again incubated with Fluo4 AM for 45 minutes at 37° C. followed by imaging. Different concentrations of LPA, NFA, or both compounds combined, along with DMSO (vehicle control) and ionomycin (direct calcium ionophore), were added 60 seconds after the beginning of imaging to quantify both baseline calcium ion concentrations and calcium flux in response to the different treatment conditions. Calcium concentrations were calculated as area under the curve (AUC) of signal intensity and compared these values across different concentrations of each compound (FIG. 25A).
# Satellite cells were isolated from wild-type mice (FVB/NJ) and sorted into 384 well plates in culture media. The cells were incubated overnight at 37° C. The next day, the cells were incubated with Fluo-4 AM (Thermo Fisher Sci F14201), a fluorescent calcium ion indicator, for 45 minutes at 37° C., followed by imaging of the entire plate with the FDSS 7000 ex functional drug screening system (Hamamatsu) in the BCH assay development and screening facility.
Compound,advantage compared to DMSO-treated control cells in competitive transplantation (ZeMPCs [1]) [fold],cytoplasmic Ca2+ concentration (muscle progenitor cells),swimming performance vs fish engrafted with vehicle-treated cells [2],intracellular calcium ion concentration (ZeMPCs [3]),calcium ion concentrations (AUC of signal intensity) relative to vehicle-treated controls (mouse satellite cells)
lysophosphatidic acid [LPA],~2,stimulate increases,better swimming performance; also recorded: performed significantly better,increase,increased significantly
"O=C(O)c1cccnc1Nc1cccc(C(F)(F)F)c1 [NFA, niflumic acid]",~2,stimulate increases,better swimming performance; also recorded: performed significantly better,increase,increased significantly
